Experiment: Temperature sensitivity of carboxylic acid extraction by 0.5 mol/kg Alamine 304 + 10% octanol in kerosene
Type: physicochemical
Details: distribution coefficient at 30°C divided by that at 75°C
Text: Referring now to said patents and the teachings thereof, one finds that the process taught therein utilizes the effect of temperature on phosphoric and carboxylic acid extraction by amine-based extractants. The term "amine" as used herein means water-immiscible amine, with a total of at least 20 carbon atoms on its chains. Said patents teach that such amine-based extractants (ABE) lose much of their extraction efficiency upon temperature elevation. This loss of efficiency is referred to as "temperature sensitivity of extraction" (TS). The magnitude of this TS can be represented by the ratio of the distribution coefficient at the lower temperature (DT1) to the distribution coefficient at the higher temperature (DT2). High TS provides for the purification and the concentration of carboxylic acids through altering the temperature between extraction and back-extraction. The acid is extracted from a feed solution by an ABE at low temperature, and is then stripped or back-extracted with water at an elevated temperature. […] This process is referred to herein as the "temperature swing process" (TSP).

TS in Equilibrium with Aqueous Solutions of (mol/kg) 0.05 (0.05 mol/kg equilibrium aqueous phase): 1.7 | TS in Equilibrium with Aqueous Solutions of (mol/kg) 0.2 (0.2 mol/kg equilibrium aqueous phase): 1.5 | TS in Equilibrium with Aqueous Solutions of (mol/kg) 0.3 (0.3 mol/kg equilibrium aqueous phase): 1.3 | TS in Equilibrium with Aqueous Solutions of (mol/kg) 0.475 (0.475 mol/kg equilibrium aqueous phase): 1.1
Compound: CCC(=O)O [Propionic, Propionic acid]

Reference: EP0941220B1, “A PROCESS FOR RECOVERY OF ASCORBIC ACID” (Yissum Research And Development Company Of The Hebrew …, priority 1996, dated 1998)
